From patent publication US8344158B2, “Fluorescent polymethine cyanine dyes” (Washington University, priority 2007, dated 2013) come the findings set out here.

The nature of data set [1]: Fluorescence spectroscopy (emission, relative quantum yield, brightness). Format: physicochemical. As to conditions: for ΦF, relative fluorescence quantum yield: MeOH, ICG as standard; for λmax, em: in methanol (Table 1); for ΦB, relative brightness referenced to ICG: product of quantum yield and molar absorptivity, ICG = 1. As for the experimental part: UV-Vis and Fluorescent Spectroscopic Analysis. Stock solutions (3.0 mM) of the dye and its conjugates were prepared by dissolving them in DMSO. […] The molar extinction coefficient was obtained using Beer's law at 0.1-0.6 μM concentration of the dye. The relative fluorescence quantum yield was determined using the equation: ΦF(x)=(As/Ax)(Fx/Fs)(nx/ns)^2ΦF(s)
where ΦF(X) is the fluorescence quantum yield, A is the absorbance, F is the area under the emission curve, n is the refractive index of the solvents used in measurement, and the subscripts s and x represent the standard and unknown, respectively. Indocyanine green (ICG) was used as a reference standard.

Data set [2] in a line: UV-Vis absorption spectroscopy. The format is physicochemical. As to conditions: for ε / λmax: in 25% aqueous DMSO. The procedure: UV-Vis and Fluorescent Spectroscopic Analysis. Stock solutions (3.0 mM) of the dye and its conjugates were prepared by dissolving them in DMSO. […] The molar extinction coefficient was obtained using Beer's law at 0.1-0.6 μM concentration of the dye. […]

Each structure is given as a SMILES string.

For the compound `CC1(C)C(=CC=C2CCCC(C=CC3=[N+](CCCS(=O)(=O)[O-])c4ccc5ccccc5c4C3(C)C)=C2c2ccc(C(=O)O)cc2)N(CCCS(=O)(=O)[O-])c2ccc3ccccc3c21.[Na+]` [Dye 2a], in data set [1], the “ΦF, relative fluorescence quantum yield” value is 0.088; the “λmax, em” value is 811 nm; the “ΦB, relative brightness referenced to ICG” value amounted to 1.3. Moreover, in data set [2], the “λmax, abs” value is recorded as 800 nm; the ε was 240 000 M^−1 cm^−1; the λmax stood at 800 nm.

As for `CC1(C)C(/C=C/C=C/C=C/C=C2\N(CCCCS(=O)(=O)O)c3ccc4ccccc4c3C2(C)C)=[N+](CCCCS(=O)(=O)[O-])c2ccc3ccccc3c21` [ICG, indocyanine green, reference compound], in data set [1], the “λmax, em” value amounted to 807 nm and the “ΦB, relative brightness referenced to ICG” value worked out at 1. Also, in data set [2], the “ε (molar absorptivity)” value turned out to be 204000 M⁻¹ cm⁻¹ and the “λmax, abs” value was 785 nm.

For `CC1(C)C(=CC=C2CCCC(C=CC3=[N+](CCCCS(=O)(=O)[O-])c4ccc5ccccc5c4C3(C)C)=C2c2ccc(C(=O)O)cc2)N(CCCCS(=O)(=O)[O-])c2ccc3ccccc3c21.[Na+]` [Dye 2b], in data set [1], the “ΦF, relative fluorescence quantum yield” value is on record as 0.092; the “λmax, em” value is 811 nm; the “ΦB, relative brightness referenced to ICG” value is 1.4. Further, in data set [2], the “λmax, abs” value was determined as 800 nm; the ε is 240 000 M^−1 cm^−1; the λmax is listed as 800 nm.

Take `CC1(C)C(=CC=C2CCCC(C=CC3=[N+](CCCCS(=O)(=O)[O-])c4ccc(S(=O)(=O)[O-])cc4C3(C)C)=C2c2ccc(C(=O)O)cc2)N(CCCCS(=O)(=O)[O-])c2ccc(S(=O)(=O)[O-])cc21.[Na+].[Na+].[Na+]` [Dye 2c]: in data set [1], the “ΦF, relative fluorescence quantum yield” value is 0.10; the “λmax, em” value was 785 nm; the “ΦB, relative brightness referenced to ICG” value is recorded as 1.4. In addition, in data set [2], the “λmax, abs” value turned out to be 770 nm; the ε is recorded as 220 000 M^−1 cm^−1; the λmax is 770 nm.
